This experiment has as its system Triticum aestivum. In words: Drought stress test on wheat Part D, reduction in damage intensity from fresh weights. To be noted: efficacy = reduction in damage intensity (fresh weight) under drought stress, 25 g/ha, at least three repeats. In kind it is in vivo. An excerpt: Wheat grains were sown in a standardized number in sandy loam soil plastic pots, covered with soil or sand and grown in a greenhouse under good growth conditions. Pots with uneven degrees of emergence were excluded prior to the start of the trial. The treatment with test substances was effected at the early leaf stage (BBCH10-BBCH13). To assure uniform water supply, the potted plants were supplied with water by dam irrigation prior to substance application. The inventive compounds were first formulated as wettable powders (WP) or dissolved in a solvent mixture. The further dilution was effected with water supplemented with 0.2% wetting agent (e.g. agrotin). The finished spray liquor was sprayed onto the green parts of the plant at an equivalent water application rate of 600 l/ha. Substance application was followed immediately by stress treatment of the plants. Drought stress was induced by gradual drying out under the following conditions: “Day”: 14 hours with illumination at 26-30° C. “Night”: 10 hours without illumination at 18-20° C. The duration of the respective stress phases was guided mainly by the condition of the stressed control plants. It was ended (by re-irrigating and transfer to a greenhouse with good growth conditions) as soon as irreversible damage was observed on the stressed control plants. The end of the stress phase was followed by an about 7-day recovery phase, during which the plants were once again kept under good growth conditions in a greenhouse. The exact duration of the recovery phase was variable for reasons related to the trial. At the end of the recovery phase, the fresh weights of the plant parts above ground were determined. By comparison with unstressed control plants which were kept under good growth conditions over the entire duration of the trial, percentage damage intensities were first calculated from the fresh weight values. The reduction in damage intensity resulting from treatment with test substance was then calculated by the following formula: [formula] EF: Efficacy DIs: Damage intensity of the stressed control plants DIt: Damage intensity of the stressed plants treated with test compound The values reported in table D-1 below are results from at least three repeats. BRSNS=Brassica napus TRZAS=Triticum aestivum

For `COC(=O)CCN1C(=O)CCc2cc(NS(=O)(=O)Cc3ccc(F)cc3)ccc21` [A51-158], the “EF [%] (TRZAS)” value stood at 11%.
